Data: patent US11584744B2 (UNIVERSITY OF WASHINGTON, priority 2017, dated 2023)
pEC50, pIC50: −log10 of the molar value. In brackets after ≈: the same amount, converted by molar mass. Several values for one entry are separate records, joined by “and”; a condition that tells them apart may be missing. Identical values can stand only once. Like-named read-outs stand apart in the source and are kept apart here.

What was measured:
[1] = system: S. aureus MSSA (ATCC 29213); assay: MIC susceptibility testing; type: cell-based, Staphylococcus aureus; conditions: Staphylococcus aureus, S. aureus ATCC 29213, read-out: (F) S. aureus (ATCC 29213) MIC
C. parvum = C. parvum growth inhibition; type: cell-based, Cryptosporidium parvum; conditions: Cryptosporidium parvum; read-out: (J) C. parvum EC50
T. cruzi = T. cruzi growth inhibition; type: cell-based, Trypanosoma cruzi; conditions: read-out: (E) T. cruzi EC50
T. brucei = T. brucei growth inhibition; type: cell-based, Trypanosoma brucei; conditions: read-out: (D) T. brucei EC50
S. pyogenes (ATCC 19615) = assay: MIC susceptibility testing; type: cell-based; conditions: Streptococcus pyogenes, ATCC19615, S. pyogenes ATCC 19615; read-out: (H) S. pyogenes (ATCC 19615) MIC
Text: Media and culture conditions. Mueller Hinton broth (MHB), cation adjusted Mueller Hinton broth (CA-MHB), and Brain Heart Infusion broth (BHI) were purchased from Becton Dickinson (Franklin Lakes, N.J.). Tryptic soy agar (TSA) plates, TSA with 5% sheep blood plates, and CA-MHB with 3% laked horse blood were purchased from Remel (San Diego, Calif.). MHB was used to assay all Staphylococcus aureus strains. CA-MHB was used for Staphylococcus epidermidis, Enterococcus faecalis, Enterococcus faecium, Escherichia coli, and Pseudomonas aeruginosa. CA-MHB supplemented with 3% laked horse blood was used for Streptococcus pneumoniae and Streptococcus pyogenes. Staphylococcus, Enterococcus, Escherichia, and Pseudomonas strains were cultured at 37° C. with ambient air. Streptococcus strains were cultured in 37° C. with 5% CO2. Separate conditions for radiolabeled precursor uptake assays are described below.
Susceptibility testing: Minimum inhibitory concentration (MIC) determinations were performed in triplicate in 96-well round bottom microtiter plates (Corning, Corning N.Y.) as described by the Clinical and Laboratory Standards Institute (CLSI). Serial two-fold dilutions of compounds were added to plates in 50 μL volumes. An additional 50 μL of media containing bacterial cells (1×10^6 CFUs/mL) was then added to each well. Maximum DMSO concentrations were 0.5%. Plates were incubated at 37° C. for at least 18 h before reading the susceptibility result by optical absorbance (OD600) using a BioTek ELx800. The lowest concentration causing ≥90% growth inhibition compared to the untreated control was recorded as the MIC (and also corresponded to the visual MIC). MICs were measured at least twice and the higher value (if different) was recorded herein.

[2] = system: E. faecium VRE (ATCC 51559); assay: MIC susceptibility testing; type: cell-based, Enterococcus faecium; conditions: Enterococcus faecium, E. faecium ATCC 51559; read-out: (I) E. faecium (ATCC 51559) MIC
Summary of the method: (§1)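 CLSI broth microdilution with two-fold compound dilutions, in triplicate; cells added in medium at 1×10^6 CFUs/mL, DMSO ≤0.5%. Media: MHB for S. aureus, CA-MHB for E. coli and E. faecium, CA-MHB plus 3% laked horse blood for S. pyogenes (5% CO2).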

[3] = molecular target: recombinant S. aureus MetRS enzyme (Staphylococcus aureus, UniProt A0A0H2XID2); assay: Inhibition of SaMetRS, ATP depletion assay; type: biochemical; conditions: read-out: (B) MetRS (S. aureus) IC50
Experimental: Production of recombinant S. aureus MetRSs. The SaMetRS gene (UniProtKB—A0A0H2XID2) was PCR amplified (Sense 5′-[…]-3′ (SEQ ID NO: 1) and Antisense 5′-[…]-3′ (SEQ ID NO:2)) from genomic DNA isolated from S. aureus (ATCC 29213) cultures. The PCR product was then cloned into the AVA0421 plasmid and sequence verified. The expression of recombinant protein was performed as previously described. The N-terminal 6-His fusion proteins were purified by nickel affinity chromatography followed by size exclusion gel chromatography (Superdex 75 26/60; GE Biosciences, Piscataway, N.J.).
Enzyme assays. Inhibition of SaMetRS was measured using the ATP depletion assay as previously described with some modifications. Compounds were pre-incubated for 15 minutes at room temperature in a 96-well plate with 400 μg/mL bulk E. coli tRNA, 25 nM SaMetRS, 0.1 U/mL pyrophosphatase, 0.2 mM spermine, 0.1 mg/mL bovine serum albumin, 2.5 mM dithiothreitol, 25 mM HEPES-KOH pH 7.9, 10 mM MgCl2, 50 mM KCl, and 2% DMSO. Reagents were purchased from Sigma-Aldrich or Roche. The reaction was started with the addition of 150 nM ATP and 20 μM L-methionine and after 120 minute incubation was stopped by the addition of an equal volume (50 μL) of Kinase-Glo® (Promega). Percent inhibition=100×(test compound−AVG low control)/(AVG high control−AVG low control) where the low control is all reagents except the compound and the high control is all reagents except the compounds and L-methionine. IC50 values were calculated by non-linear regression, sigmoidal-dose response, in Prism 3.0.

[4] = system: S. aureus MRSA (ATCC 33591); assay: MIC susceptibility testing; type: cell-based, Staphylococcus aureus; conditions: MRSA ATCC33591; for MIC: Staphylococcus aureus, read-out: (G) MRSA (ATCC33591) MIC
Summary of the method: as §1

MetRS (C. parvum) = MetRS (C. parvum) (Cryptosporidium parvum, UniProt Q5CVN0); assay: MetRS (C. parvum) enzyme inhibition; type: biochemical; conditions: read-out: (C) MetRS (C. parvum) IC50
MetRS (T. brucei) = molecular target: T1, MetRS (T. brucei) (Trypanosoma brucei brucei, UniProt Q38C91); assay: MetRS (T. brucei) enzyme inhibition; type: biochemical
T1 sequence (Q38C91 1-773): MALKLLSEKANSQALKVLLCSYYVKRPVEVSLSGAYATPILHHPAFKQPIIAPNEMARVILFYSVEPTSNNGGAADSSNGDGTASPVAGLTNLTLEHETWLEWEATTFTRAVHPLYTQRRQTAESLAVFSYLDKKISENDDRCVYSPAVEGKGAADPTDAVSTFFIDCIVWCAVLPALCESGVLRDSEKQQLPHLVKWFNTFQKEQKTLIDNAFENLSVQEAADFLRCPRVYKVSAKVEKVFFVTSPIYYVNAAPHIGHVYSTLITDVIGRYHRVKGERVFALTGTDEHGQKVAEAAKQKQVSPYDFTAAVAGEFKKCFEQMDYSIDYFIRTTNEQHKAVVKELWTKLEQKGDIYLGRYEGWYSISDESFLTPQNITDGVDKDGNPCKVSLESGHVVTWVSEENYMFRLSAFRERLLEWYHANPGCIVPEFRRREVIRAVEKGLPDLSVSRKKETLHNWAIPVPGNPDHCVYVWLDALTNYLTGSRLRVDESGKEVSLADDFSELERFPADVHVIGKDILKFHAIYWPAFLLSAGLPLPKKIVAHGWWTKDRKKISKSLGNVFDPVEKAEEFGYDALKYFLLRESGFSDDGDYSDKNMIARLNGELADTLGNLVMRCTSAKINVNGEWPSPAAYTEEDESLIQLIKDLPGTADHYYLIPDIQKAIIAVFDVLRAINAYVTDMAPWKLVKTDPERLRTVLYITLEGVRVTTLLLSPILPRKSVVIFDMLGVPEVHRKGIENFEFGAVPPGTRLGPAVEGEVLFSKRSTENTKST

Chain of MetRS (C. parvum) (Q5CVN0 entry or part of it): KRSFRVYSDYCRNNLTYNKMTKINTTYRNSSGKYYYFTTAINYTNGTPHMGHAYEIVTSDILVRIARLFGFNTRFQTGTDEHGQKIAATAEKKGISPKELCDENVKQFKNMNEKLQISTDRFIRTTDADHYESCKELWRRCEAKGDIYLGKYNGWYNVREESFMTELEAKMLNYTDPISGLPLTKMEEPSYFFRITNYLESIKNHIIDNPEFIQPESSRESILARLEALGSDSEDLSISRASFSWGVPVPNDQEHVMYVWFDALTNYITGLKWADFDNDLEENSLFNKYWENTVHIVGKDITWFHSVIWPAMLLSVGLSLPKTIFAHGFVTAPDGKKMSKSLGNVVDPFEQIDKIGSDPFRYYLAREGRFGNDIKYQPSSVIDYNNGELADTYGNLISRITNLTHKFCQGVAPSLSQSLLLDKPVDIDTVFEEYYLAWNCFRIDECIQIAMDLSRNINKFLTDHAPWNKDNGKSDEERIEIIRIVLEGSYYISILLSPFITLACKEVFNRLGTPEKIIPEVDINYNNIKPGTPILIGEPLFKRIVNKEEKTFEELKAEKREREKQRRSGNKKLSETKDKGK
Chain of recombinant S. aureus MetRS enzyme (A0A0H2XID2 2-657): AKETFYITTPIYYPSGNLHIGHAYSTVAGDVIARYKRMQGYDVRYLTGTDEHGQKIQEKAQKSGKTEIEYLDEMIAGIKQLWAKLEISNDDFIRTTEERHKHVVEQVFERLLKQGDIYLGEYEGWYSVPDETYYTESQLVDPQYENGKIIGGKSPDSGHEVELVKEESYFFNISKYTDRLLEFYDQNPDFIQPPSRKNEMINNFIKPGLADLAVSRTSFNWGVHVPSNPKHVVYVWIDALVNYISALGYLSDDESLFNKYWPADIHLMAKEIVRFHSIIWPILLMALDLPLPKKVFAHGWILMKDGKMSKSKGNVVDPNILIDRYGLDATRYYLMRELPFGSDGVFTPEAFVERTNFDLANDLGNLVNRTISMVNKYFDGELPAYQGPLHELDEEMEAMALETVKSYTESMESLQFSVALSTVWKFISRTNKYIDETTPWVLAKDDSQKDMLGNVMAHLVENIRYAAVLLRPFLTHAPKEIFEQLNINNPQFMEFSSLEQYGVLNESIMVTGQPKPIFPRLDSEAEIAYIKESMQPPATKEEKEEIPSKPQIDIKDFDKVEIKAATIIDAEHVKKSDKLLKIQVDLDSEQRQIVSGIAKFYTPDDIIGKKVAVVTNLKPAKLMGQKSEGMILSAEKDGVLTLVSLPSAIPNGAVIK

Compound	MIC [1] [µg/mL]	pEC50 (C. parvum)	pEC50 (T. cruzi; Trypanosoma cruzi)	pEC50 (T. cruzi)	pEC50 (T. brucei; Trypanosoma brucei)	pEC50 (T. brucei)	MIC (S. pyogenes (ATCC 19615)) [µg/mL]	MIC [2] [µg/mL]	pIC50 [3]	(G) MRSA (ATCC33591) MIC [4]	MIC [4] [µg/mL]	pIC50 (MetRS (C. parvum))	pIC50 (MetRS (T. brucei))	MIC ([1]; ATCC29213|MSSA) [µg/mL]
CCn1c(C(=O)c2ccc(OC)cc2Cl)cn(Cc2nc3ccc(Cl)nc3[nH]2)c1=O [Compound 2296, 1-({5-chloro-1H-imidazo[4,5-b]pyridin-2-yl}methyl)-4-(2-chloro-4-methoxybenzoyl)-3-ethyl-2,3-dihydro-1H-imidazol-2-one]	0.21 (≈ 0.471 µM)	7.21	8.28	8.13	> 9.04	9.11	0.455 (≈ 1.02 µM)	–	–	–	–	–	–	–
Clc1ccc(-c2cccc3nc(Cc4nc5nc(Cl)ccc5[nH]4)cn23)c(Cl)c1 [Compound 2134, 2-({5-chloro-1H-imidazo[4,5-b]pyridin-2-yl}methyl)-5-(2,4-dichlorophenyl)-imidazo[1,2-a]pyridine]	0.162 (≈ 0.378 µM)	–	6.16	–	7.19	–	–	0.259 (≈ 0.604 µM)	> 7.60	0.331 µg/mL	0.268 (≈ 0.625 µM)	7.23	> 7.40	–
CCn1c(Cc2c(Cl)cc(Cl)cc2OC)cn(Cc2nc3ccc(Cl)nc3[nH]2)c1=O [Compound 2295]	–	–	8.28	8.34	> 9.04	9.15	1.16 (≈ 2.49 µM)	–	–	–	–	–	–	0.124 (≈ 0.266 µM)
CCNC(=O)n1c(Cc2ccc(Cl)cc2Cl)cn(Cc2nc3nc(Cl)ccc3[nH]2)c1=O [Compound 2288, 3-({5-chloro-1H-imidazo[4,5-b]pyridin-2-yl}methyl)-5-[(2,4-dichlorophenyl)methyl]—N-ethyl-2-oxo-2,3-dihydro-1H-imidazole-1-carboxamide]	1.16 (≈ 2.42 µM)	–	6.74	–	8.75	–	> 2	–	–	–	> 2	–	–	–
CCn1c(C(O)c2ccc(OC)cc2Cl)cn(Cc2nc3ccc(Cl)nc3[nH]2)c1=O (stereo not shown) [Compound 2297, 1-({5-chloro-1H-imidazo[4,5-b]pyridin-2-yl}methyl)-4-[(2-chloro-4-methoxyphenyl)(hydroxy)methyl]-3-ethyl-2,3-dihydro-1H-imidazol-2-one]	2.98 (≈ 6.65 µM)	6.69	7.27	7.10	8.15	–	> 8	–	–	–	–	–	–	–
CC(C)NCC(O)Cn1c(Cc2ccc(Cl)cc2Cl)cn(Cc2nc3ccc(F)nc3[nH]2)c1=O (stereo not shown) [Compound 2294, 4-[(2,4-dichlorophenyl)methyl]-1-({5-fluoro-1H-imidazo[4,5-b]pyridin-2-yl}methyl)-3-{2-hydroxy-3-[(propan-2-yl)amino]propyl}-2,3-dihydro-1H-imidazol-2-one]	> 8	–	5.48	–	7.52	–	> 8	–	–	–	–	–	–	–
O=c1n(Cc2nc3ccc(Cl)nc3[nH]2)cc(Cc2ccc(Cl)cc2Cl)n1CC(F)F [Compound 2138, 1-({5-chloro-1H-imidazo[4,5-b]pyridin-2-yl}methyl)-4-[(2,4-dichlorophenyl)-methyl]-3-(2,2-difluoroethyl)-2,3-dihydro-1H-imidazol-2-one]	0.062 (≈ 0.131 µM)	–	7.57	7.27	8.61	8.46	–	0.596 (≈ 1.26 µM)	> 7.60	–	0.553 (≈ 1.17 µM)	> 7.40	> 7.40	–
COc1ccc(-c2ccc(NS(C)(=O)=O)c3nc(Cc4nc5nc(Cl)ccc5[nH]4)cn23)c(Cl)c1 [Compound 2174, N-[2-({5-chloro-1H-imidazo[4,5-b]pyridin-2-yl}methyl)-5-(2-chloro-4-methoxyphenyl)imidazo[1,2-a]pyridin-8-yl]methanesulfonamide]	0.158 (≈ 0.305 µM)	5.92	6.71	–	–	–	–	0.318 (≈ 0.615 µM)	> 7.60	–	0.319 (≈ 0.617 µM)	> 7.40	> 7.40	–
COc1ccc(-c2ccc(NC(C)=O)c3nc(Cc4nc5nc(Br)ccc5[nH]4)cn23)c(Cl)c1 [Compound 2184, N-[2-({5-bromo-1H-imidazo[4,5-b]pyridin-2-yl}methyl)-5-(2-chloro-4-methoxyphenyl)imidazo[1,2-a]pyridin-8-yl]acetamide]	0.201 (≈ 0.382 µM)	6.14	7.53	7.64	–	–	–	0.286 (≈ 0.544 µM)	> 7.60	–	0.435 (≈ 0.827 µM)	> 7.40	> 7.40	–
COc1cc(-c2cccc3nc(Cc4nc5nc(Br)ccc5[nH]4)cn23)c(Cl)cc1Cl [Compound 2146, 2-({5-bromo-1H-imidazo[4,5-b]pyridin-2-yl}methyl)-5-(2,4-dichloro-5-methoxyphenyl)imidazo[1,2-a]pyridine]	–	5.70	7.71	7.53	–	–	–	0.141 (≈ 0.28 µM)	> 7.60	0.165, μg/mL and 0.179 μg/mL	0.127 (≈ 0.252 µM)	7.03	> 7.40	–
CC(C)NCC(O)Cn1c(Cc2ccc(Cl)cc2Cl)cn(Cc2nc3cc(F)c(F)cc3[nH]2)c1=O (stereo not shown) [Compound 2293, 4-[(2,4-dichlorophenyl)methyl]-1-[(5,6-difluoro-1H-1,3-benzodiazol-2-yl)methyl]-3-{2-hydroxy-3-[(propan-2-yl)amino]propyl}-2,3-dihydro-1H-imidazol-2-one]	> 8	–	–	–	6.08	–	> 8	–	–	–	–	–	–	–
